In EP4389156A1, “RA[…] LIGAND COMPOUNDS AND PRECURSORS THEREOF” (Technische Universität München, priority 2022, dated 2024):
Values joined by “and” are separate entries in the source; they are usually repeats but may differ in a detail not shown here. Equal values may be shown once.

Key:
[1] = Lipophilicity (logD7.4), shake-flask method; assay type: physicochemical; details: n-octanol/PBS (pH 7.4), n = 8, mean ± SD
Description: The lipophilicity of ^99mTc-labeled PSMA ligands, expressed as distribution coefficient (logD7.4), was determined using the shake-flask method. A solution of approximately 1 MBq of radioligand in 1 mL of a 1:1 mixture of PBS (pH = 7.4) and n-octanol (n = 8) was vortexed vigorously for 3 min. After centrifugation at 9000 rpm for 5 min aliquots of both phases (200 µL n-octanol, 50 µL PBS) were collected and the activity was quantified in a γ-counter. logD7.4 values were calculated as decadic logarithm of the activity concentration ratio between the n-octanol phase and the aqueous phase. Data are given as mean ± standard deviation (SD). Binding to human plasma was determined by incubation of radioligands in human plasma (2 nM concentration, 37 °C for 30 min) and subsequent ultrafiltration (250 µL aliquots, 3200 rpm, 40 min) in Centrifree® ultrafiltration devices (Merck Millipore, Cork, Ireland). The fraction bound to human plasma proteins was calculated as the ratio of unfiltered activity and the total activity in the ultrafiltration device. Measurements were performed in three independent experiments, each with two replicates (n = 6, data are given as mean ± SD). All values were corrected for non-specific binding (control experiments in PBS).

[2] = biological target: T1, PSMA (Homo sapiens, UniProt Q04609); experiment: Competitive binding study, inverse IC50 (99mTc-radioligand versus increasing IBA-KuE); details: inverse IC50: IBA-KuE competes against 99mTc-radioligand (0.2 nM/well); higher values = higher affinity; 1 h, 4°C, n = 3, mean ± SD; read-out: IC50, inv.
T1 construct: endogenous in cells; printed for the internalization assay of the same paragraph
T1 sequence (Q04609 whole entry): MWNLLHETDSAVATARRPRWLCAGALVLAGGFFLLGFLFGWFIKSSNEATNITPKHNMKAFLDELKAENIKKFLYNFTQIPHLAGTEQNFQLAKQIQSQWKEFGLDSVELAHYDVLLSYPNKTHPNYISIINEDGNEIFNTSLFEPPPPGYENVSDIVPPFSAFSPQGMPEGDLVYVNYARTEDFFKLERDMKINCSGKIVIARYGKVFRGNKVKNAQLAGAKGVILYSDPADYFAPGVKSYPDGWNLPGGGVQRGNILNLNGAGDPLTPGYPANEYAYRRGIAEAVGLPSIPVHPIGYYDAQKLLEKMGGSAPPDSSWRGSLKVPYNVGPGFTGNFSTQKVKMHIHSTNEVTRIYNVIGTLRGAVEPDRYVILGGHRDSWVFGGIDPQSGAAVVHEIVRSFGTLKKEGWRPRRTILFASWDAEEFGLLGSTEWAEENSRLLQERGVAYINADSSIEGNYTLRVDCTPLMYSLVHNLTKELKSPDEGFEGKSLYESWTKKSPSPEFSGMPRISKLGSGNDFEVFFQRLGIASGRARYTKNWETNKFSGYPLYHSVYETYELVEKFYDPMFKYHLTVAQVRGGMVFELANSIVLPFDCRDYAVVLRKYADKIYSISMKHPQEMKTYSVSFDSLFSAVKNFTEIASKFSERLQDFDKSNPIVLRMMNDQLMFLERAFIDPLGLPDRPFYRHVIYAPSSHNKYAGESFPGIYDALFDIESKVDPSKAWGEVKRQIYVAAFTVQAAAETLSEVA
Description: Competitive binding studies were carried out in analogy to a previously reported procedure. As a modification the non-radiolabeled standard competitor (((S)-1-carboxy-5-(4-(iodo)benzamido)pentyl)carbamoyl)-L-glutamic acid (IBA-KuE) was applied in increasing concentrations (10^-5 - 10^-11 M/well, n = 3 each) whereas the novel PSMA-binding compounds of interest were applied as ^99mTc-labeled radioligands (0.2 nM/well). In this inversed experimental approach, higher values correspond to higher affinities and are referred to as inverse IC50. Poly-L-lysine coated 24-well plates were used (n = 3). Data are given as mean ± SD. To determine the cellular uptake of the ^99mTc-labeled PSMA ligands into LNCaP cells by means of PSMA-mediated internalization at 1 h, a previously reported protocol was applied with assay concentrations of 1.0 nM and 0.2 nM for ^99mTc-labeled PSMA ligands and the reference compound [^125I]IBA-KuE, respectively. Data are corrected for non-specific binding and normalized to the specific internalization of the reference. Results are given as mean ± SD.

[3] = test system: LNCaP tumor-bearing CB17-SCID mice; experiment: Biodistribution study in LNCaP tumor-bearing mice; assay type: in vivo
Description: All animal experiments were conducted in accordance with general animal welfare regulations in Germany (German animal protection act, in the edition of the announcement, dated May 18th, 2006, as amended by Article 280 of June 19th 2020, approval no. ROB-55.2-1-2532.Vet_02-18-109 by the General Administration of Upper Bavaria) and the institutional guidelines for the care and use of animals. Male CB17-SCID mice were purchased from Charles River (Sulzfeld, Germany) and arrived at the in-house animal facility to acclimate at least 1 week before the start of the experiment. Tumor xenografts were established by subcutaneous inoculation of LNCaP cells (approx. 2 × 10^7 cells in 200 µL of a 1:1 mixture of Cultrex BME (R&D Systems, Minneapolis, United States) and DMEM/Ham's F-12) onto the right shoulder of 6-8 weeks old male CB17-SCID mice. The animals were used for experiments when tumors had grown to a size of 5-10 mm in diameter. Criteria for the exclusion of animals from the experiment were weight loss higher than 20%, tumor size above 1.5 cm^3, ulceration of the tumor, respiratory distress or change of behavior. […] Neither randomisation nor blinding was applied in the allocation of the experiments. Quarterly health monitoring was performed according to the FELASA recommendations.
Biodistribution Studies. The ^99mTc-labeled radioligands (2.7 ± 0.7 MBq, 82 ± 20 pmol) were injected into a lateral tail vein of LNCaP-tumor bearing mice (n = 4-5) under isoflurane anesthesia. Animals were sacrificed at 6 h post injection (p.i.) by carbon dioxide inhalation and blood withdrawal via cardiac puncture. Blood and tissues of interest were collected, weighed and the activity measured in a γ-counter. Radioligand uptake is given in percent of the injected dose per gram of tissue (% ID/g) and results are presented as mean ± SD.
In line with the above, the biodistribution study of [^99mTc]Tc-N4-PSMA-21 was carried out with n = 5 animals ("data set I"). […] Kidney uptake of mouse #3 (36.17 %ID/g) exceeded the value obtained from the other four animals (4.58 ± 1.44 %ID/g, mean ± SD) 7.9-fold or by more than 20 standard deviations. In addition, tumor uptake of mouse #3 (21.92 %ID/g) exceeded the value obtained from the other four animals (11.02 ± 2.22 %ID/g, mean ± SD) 2.0-fold or by more than 4 standard deviations Due to the uncertainty whether these huge deviations arise from an experimental error or might be related to strongly deviating metabolic processes e.g. abnormal kidney function in mouse #3, the study primarily presents and discusses the data set based on the other four animals (n = 4, "data set II"). A thorough evaluation and comparison was, however, also carried out including mouse #3.

[4] = 6 h p.i., male LNCaP tumor-bearing CB17-SCID mice, mean, n = 4-5
[5] = 6 h p.i., mean of ratios of individual animals, n = 4-5
[6] = 6 h p.i., relative to [^99mTc]Tc-PSMA-I&S

CC(C)(C)[Si](O)(c1ccc(C(=O)NC[C@@H](NC(=O)[C@@H](CCC(=O)O)NC(=O)C(CNCCN)CNCCN)C(=O)N[C@H](CCCCNC(=O)CCC(=O)NCCC[C@@H](NC(=O)CC[C@H](NC(=O)N[C@@H](CCC(=O)O)C(=O)O)C(=O)O)C(=O)O)C(=O)O)cc1)C(C)(C)C.[O]=[99Tc+]=[O] [[^99mTc]Tc-N4-PSMA-12]
logD7.4 [1]: -3.35 ± 0.05 | inverse IC50 [2]: 11 ± 2.8 nM | uptake in % iD/g adrenals [3, 4]: 0.6570 % ID/g | uptake in % iD/g blood [3, 4]: 0.0200 ± 0.0044 % ID/g and 0.0200 % ID/g | uptake in % iD/g bone [3, 4]: 0.0365 % ID/g | uptake in % iD/g heart [3, 4]: 0.0274 % ID/g | uptake in % iD/g intestine [3, 4]: 0.5391 % ID/g | uptake in % iD/g kidney [3, 4]: 12.3 ± 8.0 % ID/g and 12.2924 % ID/g | uptake in % iD/g liver [3, 4]: 0.1796 % ID/g | uptake in % iD/g lung [3, 4]: 0.0613 % ID/g | uptake in % iD/g muscle [3, 4]: 0.0110 % ID/g | uptake in % iD/g pancreas [3, 4]: 0.0206 % ID/g | uptake in % iD/g parotid gland [3, 4]: 0.0804 % ID/g | uptake in % iD/g spleen [3, 4]: 0.8928 % ID/g | uptake in % iD/g stomach [3, 4]: 0.0988 % ID/g | uptake in % iD/g submandibular gland [3, 4]: 0.1450 % ID/g | uptake in % iD/g tumor [3, 4]: 13.0231 % ID/g | tumor-to-background ratio adrenals [3, 5]: 22.15 | tumor-to-background ratio blood [3, 5]: 658 ± 147 and 657.74 | tumor-to-background ratio bone [3, 5]: 384.40 | tumor-to-background ratio heart [3, 5]: 484.90 | tumor-to-background ratio intestine [3, 5]: 57.76 | tumor-to-background ratio kidney [3, 5]: 1.64 ± 1.29 and 1.64 | tumor-to-background ratio liver [3, 5]: 79.92 | tumor-to-background ratio lung [3, 5]: 216.68 | tumor-to-background ratio muscle [3, 5]: 1265.34 | tumor-to-background ratio pancreas [3, 5]: 637.21 | tumor-to-background ratio parotid gland [3, 5]: 177.38 | tumor-to-background ratio spleen [3, 5]: 17.89 | tumor-to-background ratio stomach [3, 5]: 158.87 | tumor-to-background ratio submandibular gland [3, 5]: 90.45 | fold T/blood-ratio in comparison with [^99mTc]Tc-PSMA-I&S [3, 6]: 3 fold | fold T/kidney-ratio in comparison with [^99mTc]Tc-PSMA-I&S [3, 6]: 20 fold | fold decrease of blood activity at 6 h p.i. ([3]; relative to [^99mTc]Tc-PSMA-I&S): 3.6 fold
